The values below come from publication PMC5994430, “Mitochondrial Delivery of Phenol Substructure Triggers Mitochondrial Depolarization and Apoptosis of Cancer Cells” (Frontiers in Pharmacology, 2018).

Test [1] relates to BEAS-2B cells. The experiment in a line: Cell viability (neutral red). Type of test: cell-based, Human. Particulars: BEAS-2B; 0.1 μM, 72 h. The text has this: (§1) Human colon cancer HT29 cells, colon-derived normal fibroblast CCD-18Co cells, lung cancer A549 cells, normal human bronchial epithelial (immortalized with adenovirus 12-SV40 virus hybrid Ad12SV40) BEAS-2B cells, breast cancer MDA-MB-231 cells, normal breast epithelial MCF10A cells, human osteosarcoma U-2OS cells were purchased from ATCC (Manassas, VA, United States). […] All subjects gave written informed consent in accordance with the Declaration of Helsinki. Cells were maintained in medium supplemented with 10% v/v fetal bovine serum, 1% v/v penicillin-streptomycin, 1% v/v L-glutamine. Morphological analysis was performed with a bright field microscope (Leica Microsystems, Wetzlar, Germany). At least 5 fields/experimental condition were examined.
(§2) LDH activity was measured in the extracellular medium and in the cell lysate: 50 μl of extracellular medium or 5 μl of cell lysate were incubated at 37°C with 5 mM NADH. The reaction was started by adding 20 mM pyruvic acid and was monitored for 6 min, measuring absorbance at 340 nm using a Synergy HT Multi-Detection Microplate Reader (Bio-Tek Instruments, Winoosky, MT, United States). […] Both intracellular and extracellular enzyme activities were expressed as μmol NADH oxidized/min/dish. The results were expressed as percentage of extracellular LDH versus total (intracellular plus extracellular) LDH. […] The absorbance of untreated cells was considered as 100% viability; the results were expressed as percentage of viable cells versus untreated cells. IC50 was calculated with the CompuSyn software^1.

Test [2] has as its system A549 cells. The test can be described thus: Cell viability (neutral red). The test is classed as cell-based, Human. Particulars: A549; 0.1 μM, 72 h.
Excerpt: as §1, §2

Take `C[P+](c1ccccc1)(c1ccccc1)c1ccccc1.[Cl-]` [TPMP, methyltriphenylphosphonium chloride, reference compound]: the cell viability entry in test [1] and in test [2] was “did not reduce viability” in each case.
